Laboratory results as given in patent US8106089B2, “Anti-tubulin acting arylpyrrol, arylfuran and arylthiophene derivatives, method for the preparation thereof and for the use thereof as an antimitotic” (Centre National de la Recherche, priority 2004, dated 2012).

What was measured:
Assay type in all cases: cell-based
[1] = system: L1210 mouse leukemia cells; assay: MTT test, cell growth; conditions: mean ± sd of 3 experiments in triplicate, read-out: IC50 (concentration that inhibits 50% of cell growth) ± sd
Source text: (§1) Aim: Given the role of tubulin in the formation of the mitotic spindle, we analyzed the effect of the compounds according to the present invention on the cell cycle of the following murine cells using various methods: the murine melanoma tumor cell line, the B16 F1 cell line and the mel a cell line (melanocytes), and the L1210 mouse leukemia cell line.
(§2) We initially evaluated the effect of compounds 17, 18 and 19 on the growth of the three cell lines by a “MTT” test. The principle of the MTT test consists of measuring the activity of mitochondrial succinate dehydrogenase in living cells. This enzyme transforms MTT (3-(4,5-dimethylthiazol-2-yl)-2,5-diphenyltetrazolium bromide), yellow in color, into insoluble purple formazan crystals. After dissolution of the crystals in dimethylsulfoxide (DMSO), absorbance is measured at 540 nm by spectrophotometry. The optical densities obtained are directly proportional to the number of living cells. The cytotoxic effect of a sample is evaluated by the percentage of living cells in the presence of this sample, compared to the cells treated with the solvent alone. This method makes it possible to measure the proportion of living cells in a given cell population. By comparison with untreated cells, we thus determined the concentration of each compound that induces a 50% inhibition of cell growth. The IC50 ranges from 50 μM to 100 μM.

B16 F1 cells = assay: MTT test, cell growth; conditions: Mus musculus, mean ± sd of 3 experiments in triplicate, read-out: IC50 (concentration that inhibits 50% of cell growth) ± sd
Source text: as §1, §2

[2] = system: mouse melanoma (B16) cells; assay: Cell cycle progression, flow cytometry after propidium iodide labeling; conditions: for % of B16 cells in phase G1 / % of B16 cells in phase G2/M / % of B16 cells in phase S: 24 hours
Procedure: (§3) In order to approach the mechanism of action of these compounds, we then studied their effect on the progression of the cell cycle in mouse melanoma (B16) cells and mouse leukemia (L1210) cells. For this purpose, we compared the distribution of the treated or untreated cells in each phase of the cycle. […] They then were fixed and made permeable with ethanol. After incubation with propidium iodide, which labels cellular DNA, the DNA content of the cells is then analyzed by flow cytometry.

[3] = system: mouse leukemia (L1210) cells; assay: as above; conditions: 24 hours
Procedure: as §3

mel a melanocytes = assay: MTT test, cell growth; conditions: Mus musculus, Melanocyte, mean ± sd of 3 experiments in triplicate, read-out: IC50 (concentration that inhibits 50% of cell growth) ± sd
Source text: as §1, §2

IC50 [1] [µM] | IC50 (B16 F1 cells) [µM] | SMILES | % of B16 cells in phase G1 ([2]; 50 μM) [%] | % of B16 cells in phase G2/M ([2]; 50 μM) [%] | % of B16 cells in phase S ([2]; 50 μM) [%] | % of L1210 cells in phase G1 ([3]; 40 μM) [%] | % of L1210 cells in phase G2/M ([3]; 40 μM) [%] | % of L1210 cells in phase S ([3]; 40 μM) [%] | % of L1210 cells in phase G1 ([3]; 50 μM) [%] | % of L1210 cells in phase G2/M ([3]; 50 μM) [%] | % of L1210 cells in phase S ([3]; 50 μM) [%] | IC50 (mel a melanocytes) [µM] | % of B16 cells in phase G1 ([2]; 75 μM) [%] | % of B16 cells in phase G2/M ([2]; 75 μM) [%] | % of B16 cells in phase S ([2]; 75 μM) [%] | other results
> 400 | > 400 | CC(C)c1ccc(CCCO)[nH]1 [Compound 21, 3-(5-Isopropyl-1H-pyrrol-2-yl)-propan-1-ol] |  |  |  |  |  |  |  |  |  |  |  |  |  | 
53.7 ± 0.7 | 88.7 ± 7.6 | CC(C)c1cc(-c2ccccc2N)c(CCCO)n1C(=O)OC(C)(C)C [Compound 17, 3-(2-Amino-phenyl)-2-(3-hydroxy-propyl)-5-isopropyl-pyrrole-1-carboxylic acid tert-butyl ester] | 58.0 | 25.4 | 16.6 | 54.9 | 23.2 | 21.9 | 39.2 | 43.6 | 17.2 | 69.7 ± 0.9 |  |  |  | % of B16 cells in phase G1 ([2]; 70 μM): 40.8%; % of B16 cells in phase G2/M ([2]; 70 μM): 22.3%; % of B16 cells in phase S ([2]; 70 μM): 37%; % of B16 cells in phase G1 ([2]; 100 μM): 43.3%; % of B16 cells in phase G2/M ([2]; 100 μM): 16.5%; % of B16 cells in phase S ([2]; 100 μM): 40.3%
17.7 ± 4.5 | 107 ± 1.8 | CC(C)c1cc(-c2ccccc2N)c(CCCO)[nH]1 [Compound 19, 3-[3-(2-Amino-phenyl)-5-isopropyl-1H-pyrrol-2-yl]-propan-1-ol] | 78.7 | 5.2 | 14.1 |  |  |  | 49.5 | 24 | 26.5 | 116 ± 3.2 | 56.1 | 31.9 | 2.8 | % of L1210 cells in phase G1 ([3]; 75 μM): 39.8%; % of L1210 cells in phase G2/M ([3]; 75 μM): 38.8%; % of L1210 cells in phase S ([3]; 75 μM): 21.4%
 |  | CC(C)[C@@H](C=O)NC(=O)OC(C)(C)C [compound 2, (S)—N-(tert-Butoxycarbonyl)valinal] |  |  |  |  |  |  |  |  |  |  |  |  |  | higher proportion of cells in phase G2/M versus control ([2]; concentrations near IC50 or higher, cell line not stated): approximately 3 times
33.2 ± 1.3 | 171 ± 10.8 | CC(C)c1cc(-c2ccccc2)c(CCCO)[nH]1 [Compound 18, 3-(5-Isopropyl-3-phenyl-1H-pyrrol-2-yl)-propan-1-ol] |  |  |  | 32.7 | 12.6 | 54.7 |  |  |  |  | 65.0 | 12.1 | 11.3 | % of B16 cells in phase G1 ([2]; 125 μM): 50.0%; % of B16 cells in phase G2/M ([2]; 125 μM): 32.0%; % of B16 cells in phase S ([2]; 125 μM): 5.2%; % of B16 cells in phase G1 ([2]; 150 μM): 42.1%; % of B16 cells in phase G2/M ([2]; 150 μM): 36.0%; % of B16 cells in phase S ([2]; 150 μM): 21.8%; % of L1210 cells in phase G1 ([3]; 55 μM): 30.9%; % of L1210 cells in phase G2/M ([3]; 55 μM): 21.9%; % of L1210 cells in phase S ([3]; 55 μM): 47.2%
